What follows are compounds tested against T1, RET (Homo sapiens, UniProt P07949) (assay: Inhibition of RET kinase activity, recombinant RET method (Kinase-Glo)). Conditions: RET 2 μg/ml, poly-EY4 substrate, 20 μM ATP, two hours at 30° C.
T1 construct: purchased Upstate 14-570MG
Type: biochemical
Protocol: The inhibition of the kinase activity of the compounds of the invention is assessed by measuring their IC50 on RET.
where: • Y is the value of the luminescence • X is the logarithm of the concentration of the compound • Bottom is the minimum Y value • Top is the maximum Y value • LogIC50 is the value of X when Y is 50% from Top—Bottom.
The quantity of RET required is 2 μg/ml.
The following buffer is used for dilution of RET: 20 mM MOPS/NaOH pH7.0, 1 mM EDTA, 5% glycerol, 0.01% Brij35 (Sigma B4184), 0.1% 2-mercaptoethanol, 1 mg/ml BSA (Sigma A3059-10G).
The dilution of the compounds of the invention is distributed so as to obtain a scale of final concentrations between 10 nM and 30 μM.
After incubation of the reaction mixture for two hours at 30° C., the level of ATP that remains is assayed using the Kinase-Glo Luminescent Kinase Assay (Promega #V6712) according to the conditions recommended by the supplier. The luminescence induced is read in a plate reader (Envision-Perkin Elmer).

T1 sequence (P07949 29-1114): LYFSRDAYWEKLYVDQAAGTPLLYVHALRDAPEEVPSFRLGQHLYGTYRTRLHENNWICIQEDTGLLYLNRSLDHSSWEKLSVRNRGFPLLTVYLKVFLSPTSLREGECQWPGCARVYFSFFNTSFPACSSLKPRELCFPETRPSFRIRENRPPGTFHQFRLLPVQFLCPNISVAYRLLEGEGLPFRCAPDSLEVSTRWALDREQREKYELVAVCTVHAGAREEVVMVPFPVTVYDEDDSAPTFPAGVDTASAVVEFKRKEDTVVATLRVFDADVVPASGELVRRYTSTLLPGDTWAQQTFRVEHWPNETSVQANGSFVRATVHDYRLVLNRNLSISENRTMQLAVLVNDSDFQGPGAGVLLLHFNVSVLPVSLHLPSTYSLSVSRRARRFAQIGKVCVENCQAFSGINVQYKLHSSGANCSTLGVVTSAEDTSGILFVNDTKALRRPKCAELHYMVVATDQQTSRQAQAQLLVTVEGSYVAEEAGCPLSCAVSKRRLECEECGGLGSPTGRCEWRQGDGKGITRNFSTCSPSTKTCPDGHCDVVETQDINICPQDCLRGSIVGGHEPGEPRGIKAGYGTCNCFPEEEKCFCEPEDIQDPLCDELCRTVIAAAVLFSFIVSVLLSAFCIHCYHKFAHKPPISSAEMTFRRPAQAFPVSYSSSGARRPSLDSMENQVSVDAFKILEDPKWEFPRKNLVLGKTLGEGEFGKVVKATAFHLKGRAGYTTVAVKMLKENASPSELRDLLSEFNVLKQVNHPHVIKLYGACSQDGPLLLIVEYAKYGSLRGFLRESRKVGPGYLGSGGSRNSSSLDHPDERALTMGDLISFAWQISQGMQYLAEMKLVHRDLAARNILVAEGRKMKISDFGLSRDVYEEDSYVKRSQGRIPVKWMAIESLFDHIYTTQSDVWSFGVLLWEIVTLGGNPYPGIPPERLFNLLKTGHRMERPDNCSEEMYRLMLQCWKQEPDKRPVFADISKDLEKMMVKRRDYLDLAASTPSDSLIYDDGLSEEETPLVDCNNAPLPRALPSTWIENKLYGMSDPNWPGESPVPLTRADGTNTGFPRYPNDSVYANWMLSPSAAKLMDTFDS

Row | IC50 [µM] | Compound
1 | 10 to 100 | CCOC(=O)c1c[nH]c2c(=O)[nH]c3ccc(NS(=O)(=O)c4cccc(C)c4)cc3c12 [Compound 48, 4-Oxo-8-(3-toluenesulfonylamino)-4,5-dihydro-3H-pyrrolo[2,3-c]quinoline-1-ethyl carboxylate]
2 | 1 to 10 | CCOC(=O)c1c[nH]c2c(=O)[nH]c3ccc(NS(=O)(=O)c4ccc(OC)cc4)cc3c12 [Compound 50, 8-(4-Methoxy-benzenesulfonylamino)-4-oxo-4,5-dihydro-3H-pyrrolo[2,3-c]quinoline-1-ethyl carboxylate]
3 | 1 to 10 | CCOC(=O)c1c[nH]c2c(=O)[nH]c3ccc(NS(=O)(=O)c4cccc(OC)c4)cc3c12 [Compound 51, 8-(3-Methoxy-benzenesulfonylamino)-4-oxo-4,5-dihydro-3H-pyrrolo[2,3-c]quinoline-1-ethyl carboxylate]
4 | 1 to 10 | CCOC(=O)c1c[nH]c2c(=O)[nH]c3ccc(NS(=O)(=O)c4ccc(NC(C)=O)cc4)cc3c12 [Compound 52, 8-(4-Acetylamino-benzenesulfonylamino)-4-oxo-4,5-dihydro-3H-pyrrolo[2,3-c]quinoline-1-ethyl carboxylate]
5 | 0.1 to 1 | CCOC(=O)c1c[nH]c2c(=O)[nH]c3ccc(NS(=O)(=O)c4ccc([N+](=O)[O-])cc4)cc3c12 [Compound 53, 8-(4-Nitro-benzenesulfonylamino)-4-oxo-4,5-dihydro-3H-pyrrolo[2,3-c]quinoline-1-ethyl carboxylate]
6 | 10 to 100 | CCOC(=O)c1c[nH]c2c(=O)[nH]c3ccc(NS(=O)(=O)c4ccc5ccccc5c4)cc3c12 [Compound 54, 8-(Naphthalene-2-sulfonylamino)-4-oxo-4,5-dihydro-3H-pyrrolo[2,3-c]quinoline-1-ethyl carboxylate]
7 | 1 to 10 | CCOC(=O)c1c[nH]c2c(=O)[nH]c3ccc(NS(=O)(=O)c4ccc(C(C)=O)cc4)cc3c12 [Compound 55, 8-(4-Acetyl-benzenesulfonylamino)-4-oxo-4,5-dihydro-3H-pyrrolo[2,3-c]quinoline-1-ethyl carboxylate]
8 | 0.1 to 1 | CCOC(=O)c1c[nH]c2c(=O)[nH]c3ccc(NS(=O)(=O)c4ccc(Cl)s4)cc3c12 [Compound 57, 8-(5-Chloro-thiophene-2-sulfonylamino)-4-oxo-4,5-dihydro-3H-pyrrolo[2,3-c]quinoline-1-ethyl carboxylate]
9 | 0.1 to 1 | CCOC(=O)c1c[nH]c2c(=O)[nH]c3ccc(N(C)S(C)(=O)=O)cc3c12 [Compound 59, 8-(Methanesulfonyl-methyl-amino)-4-oxo-4,5-dihydro-3H-pyrrolo[2,3-c]quinoline-1-ethyl carboxylate]
10 | 1 to 10 | CCOC(=O)c1c[nH]c2c(=O)[nH]c3ccc(NC(=O)c4ccccc4)cc3c12 [Compound 60, 8-Benzoylamino-4-oxo-4,5-dihydro-3H-pyrrolo[2,3-c]quinoline-1-ethyl carboxylate]
11 | 1 to 10 | CCOC(=O)c1c[nH]c2c(=O)[nH]c3ccc(NC(C)=O)cc3c12 [Compound 61, 8-Acetylamino-4-oxo-4,5-dihydro-3H-pyrrolo[2,3-c]quinoline-1 ethyl carboxylate]
12 | 1 to 10 | CCOC(=O)c1c[nH]c2c(=O)[nH]c3ccc(N(C)C)cc3c12 [Compound 62, 8-Dimethylamino-4-oxo-4,5-dihydro-3H-pyrrolo[2,3-c]quinoline-1-ethyl carboxylate]
13 | 1 to 10 | CCOC(=O)/C=C/c1ccc2[nH]c(=O)c3[nH]cc(C(=O)OCC)c3c2c1 [Compound 65, 8-(2-Ethoxycarbonyl-vinyl)-4-oxo-4,5-dihydro-3H-pyrrolo[2,3-c]quinoline-1-ethyl carboxylate]
14 | 10 to 100 | CCOC(=O)c1c[nH]c2c(=O)[nH]c3c([N+](=O)[O-])cccc3c12 [Compound 67, 6-Nitro-4-oxo-4,5-dihydro-3H-pyrrolo[2,3-c]quinoline-1-ethyl carboxylate]
15 | 1 to 10 | CCOC(=O)c1c[nH]c2c(=O)[nH]c3ccc(/C=C/C(=O)NCc4ccccc4)cc3c12 [Compound 68, 8-(2-Benzylcarbamoyl-vinyl)-4-oxo-4,5-dihydro-3H-pyrrolo[2,3-c]quinoline-1-ethyl carboxylate]
16 | 1 to 10 | CCOC(=O)c1c[nH]c2c(=O)[nH]c3ccc(/C=C/C(=O)NCCC(=O)OC)cc3c12 [Compound 69, 8-[2-(2-Methoxycarbonyl-ethylcarbamoyl)-vinyl]-4-oxo-4,5-dihydro-3H-pyrrolo[2,3-c]quinoline-1-ethyl carboxylate]
17 | 1 to 10 | CCOC(=O)c1c[nH]c2c(=O)[nH]c3cc(OC)c(OC)cc3c12 [Compound 72, 7,8-Dimethoxy-4-oxo-4,5-dihydro-3H-pyrrolo[2,3-c]quinoline-1-ethyl carboxylate]
18 | 1 to 10 | COC(=O)c1c[nH]c2c(=O)[nH]c3ccccc3c12 [Compound 73, 4-Oxo-4,5-dihydro-3H-pyrrolo[2,3-c]quinoline-1-methyl carboxylate]
19 | 1 to 10 | O=C(OCc1ccccc1)c1c[nH]c2c(=O)[nH]c3ccccc3c12 [Compound 74, 4-Oxo-4,5-dihydro-3H-pyrrolo[2,3-c]quinoline-1-carboxylate benzyl]
20 | 10 to 100 | O=C(O)c1c[nH]c2c(=O)[nH]c3ccccc3c12 [Compound 75, 4-oxo-4,5-dihydro-3H-pyrrolo[2,3-c]quinoline-1-carboxylic acid]
21 | 1 to 10 | O=C(c1ccccc1)c1c[nH]c2c(=O)[nH]c3ccccc3c12 [Compound 76, 1-Benzoyl-3,5-dihydro-pyrrolo[2,3-c]quinolin-4-one]
22 | 10 to 100 | CC(=O)c1c[nH]c2c(=O)[nH]c3ccccc3c12 [Compound 77, 1-Acetyl-3,5-dihydro-pyrrolo[2,3-c]quinolin-4-one]
23 | 1 to 10 | CC(C)OC(=O)c1c[nH]c2c(=O)[nH]c3ccccc3c12 [Compound 78, 4-Oxo-4,5-dihydro-3H-pyrrolo[2,3-c]quinoline-1-carboxylate isopropyl]
24 | 10 to 100 | CN(C)CCCNC(=O)c1c[nH]c2c(=O)[nH]c3ccccc3c12 [Compound 80, N-(3-Dimethylamino-propyl)-4-oxo-4,5-dihydro-3H-pyrrolo[2,3-c]quinoline-1-carboxamide]
25 | 10 to 100 | COC(=O)CCNC(=O)c1c[nH]c2c(=O)[nH]c3ccccc3c12 [Compound 81, 3-[(4-Oxo-4,5-dihydro-3H-pyrrolo[2,3-c]quinoline-1-carbonyl)-amino]-methyl propanoate]
26 | 10 to 100 | O=C(NCC1CCCCC1)c1c[nH]c2c(=O)[nH]c3ccccc3c12 [Compound 82, N-(Cyclohexylmethyl)-4-oxo-4,5-dihydro-3H-pyrrolo[2,3-c]quinoline-1-carboxamide]
27 | 10 to 100 | O=C(NCc1ccccc1)c1c[nH]c2c(=O)[nH]c3ccccc3c12 [Compound 83, N-(Benzyl)-4-oxo-4,5-dihydro-3H-pyrrolo[2,3-c]quinoline-1-carboxamide]
28 | 10 to 100 | O=C(NCCc1c[nH]c2ccccc12)c1c[nH]c2c(=O)[nH]c3ccccc3c12 [Compound 84, N-[2-(1H-Indol-3-yl)-ethyl]-4-oxo-4,5-dihydro-3H-pyrrolo[2,3-c]quinoline-1-carboxamide]
29 | 10 to 100 | O=C(NCCCO)c1c[nH]c2c(=O)[nH]c3ccccc3c12 [Compound 85, N-(3-Hydroxy-propyl)-4-oxo-4,5-dihydro-3H-pyrrolo[2,3-c]quinoline-1-carboxamide]

From US8426437B2, “Pyrroloquinoline derivatives and their use as protein kinases inhibitors” (Pierre Fabre Medicament, priority 2005, dated 2013)
